Results published in EPA's CvTdb concentration-time database.

Key:
[1] = tested on: Rat; assay: concentration in adipose after dosing; conditions: 48 h; dosed: 2,3,7,8-Tetrachlorodibenzo-p-dioxin; 0.0001 mg/kg; oral; Female; Sprague-Dawley
[2] = tested on: Rat; assay: concentration in adipose (perirenal) after dosing; conditions: 2400 h; dosed: 2,3,7,8-Tetrachlorodibenzo-p-dioxin; 0.0001 mg/kg; oral; Female; Sprague-Dawley
[3] = tested on: Rat; assay: concentration in liver after dosing; conditions: dosed: 2,3,7,8-Tetrachlorodibenzo-p-dioxin, oral, Female, Sprague-Dawley
[4] = tested on: Rat; assay: concentration in liver after dosing; conditions: 24 h; dosed: 2,3,7,8-Tetrachlorodibenzo-p-dioxin; 0.0001 mg/kg; oral; Female; Sprague-Dawley
[5] = tested on: Rat; assay: concentration in adipose (perirenal) after dosing; conditions: 480 h; dosed: 2,3,7,8-Tetrachlorodibenzo-p-dioxin; 0.0001 mg/kg; oral; Female; Sprague-Dawley
[6] = tested on: Rat; assay: concentration in adipose (perirenal) after dosing; conditions: 960 h; dosed: 2,3,7,8-Tetrachlorodibenzo-p-dioxin; 0.0001 mg/kg; oral; Female; Sprague-Dawley
[7] = tested on: Rat; assay: concentration in adipose (perirenal) after dosing; conditions: 48 h; dosed: 2,3,7,8-Tetrachlorodibenzo-p-dioxin; 0.0001 mg/kg; oral; Female; Sprague-Dawley
[8] = tested on: Rat; assay: concentration in adipose (perirenal) after dosing; conditions: 1680 h; dosed: 2,3,7,8-Tetrachlorodibenzo-p-dioxin; 0.0001 mg/kg; oral; Female; Sprague-Dawley
[9] = tested on: Rat; assay: concentration in adipose after dosing; conditions: 2400 h; dosed: 2,3,7,8-Tetrachlorodibenzo-p-dioxin; 0.0001 mg/kg; oral; Female; Sprague-Dawley
[10] = tested on: Rat; assay: concentration in adipose (perirenal) after dosing; conditions: 480 h; dosed: 2,3,7,8-Tetrachlorodibenzo-p-dioxin; 0.0001 mg/kg; oral; Female; Sprague-Dawley; remark: listed apart in the source
[11] = tested on: Rat; assay: concentration in adipose (perirenal) after dosing; conditions: 48 h; dosed: 2,3,7,8-Tetrachlorodibenzo-p-dioxin; 0.0001 mg/kg; oral; Female; Sprague-Dawley; remark: listed apart in the source
[12] = tested on: Rat; assay: concentration in liver after dosing; conditions: 24 h; dosed: 2,3,7,8-Tetrachlorodibenzo-p-dioxin; 0.0001 mg/kg; oral; Female; Sprague-Dawley; remark: listed apart in the source
[13] = tested on: Rat; assay: concentration in adipose after dosing; conditions: 48 h; dosed: 2,3,7,8-Tetrachlorodibenzo-p-dioxin; 0.0001 mg/kg; oral; Female; Sprague-Dawley; remark: listed apart in the source
[14] = tested on: Rat; assay: concentration in adipose (perirenal) after dosing; conditions: 1680 h; dosed: 2,3,7,8-Tetrachlorodibenzo-p-dioxin; 0.0001 mg/kg; oral; Female; Sprague-Dawley; remark: listed apart in the source
[15] = tested on: Rat; assay: concentration in adipose (perirenal) after dosing; conditions: 48 h; dosed: 2,3,7,8-Tetrachlorodibenzo-p-dioxin; 0.0001 mg/kg; oral; Female; Sprague-Dawley; remark: listed apart in the source
[16] = tested on: Rat; assay: concentration in liver after dosing; conditions: 24 h; dosed: 2,3,7,8-Tetrachlorodibenzo-p-dioxin; 0.0001 mg/kg; oral; Female; Sprague-Dawley; remark: listed apart in the source
[17] = tested on: Rat; assay: concentration in adipose (perirenal) after dosing; conditions: 960 h; dosed: 2,3,7,8-Tetrachlorodibenzo-p-dioxin; 0.0001 mg/kg; oral; Female; Sprague-Dawley; remark: listed apart in the source
[18] = tested on: Rat; assay: concentration in adipose (perirenal) after dosing; conditions: 1680 h; dosed: 2,3,7,8-Tetrachlorodibenzo-p-dioxin; 0.0001 mg/kg; oral; Female; Sprague-Dawley; remark: listed apart in the source
[19] = tested on: Rat; assay: concentration in adipose after dosing; conditions: 1680 h; dosed: 2,3,7,8-Tetrachlorodibenzo-p-dioxin; 0.0001 mg/kg; oral; Female; Sprague-Dawley
[20] = tested on: Rat; assay: concentration in plasma after dosing; conditions: dosed: 2,3,7,8-Tetrachlorodibenzo-p-dioxin, 0.0001 mg/kg, oral, Female, Sprague-Dawley
[21] = tested on: Rat; assay: concentration in adipose (perirenal) after dosing; conditions: 48 h; dosed: 2,3,7,8-Tetrachlorodibenzo-p-dioxin; 0.0001 mg/kg; oral; Female; Sprague-Dawley; remark: listed apart in the source
[22] = tested on: Rat; assay: concentration in adipose after dosing; conditions: 1680 h; dosed: 2,3,7,8-Tetrachlorodibenzo-p-dioxin; 0.0001 mg/kg; oral; Female; Sprague-Dawley; remark: listed apart in the source
[23] = tested on: Rat; assay: concentration in adipose after dosing; conditions: 1680 h; dosed: 2,3,7,8-Tetrachlorodibenzo-p-dioxin; 0.0001 mg/kg; oral; Female; Sprague-Dawley; remark: listed apart in the source
[24] = tested on: Rat; assay: concentration in adipose (perirenal) after dosing; conditions: 48 h; dosed: 2,3,7,8-Tetrachlorodibenzo-p-dioxin; 0.00005 mg/kg; oral; Female; Sprague-Dawley
[25] = tested on: Rat; assay: concentration in adipose after dosing; conditions: 480 h; dosed: 2,3,7,8-Tetrachlorodibenzo-p-dioxin; 0.0001 mg/kg; oral; Female; Sprague-Dawley
[26] = tested on: Rat; assay: concentration in adipose (perirenal) after dosing; conditions: 960 h; dosed: 2,3,7,8-Tetrachlorodibenzo-p-dioxin; 0.0001 mg/kg; oral; Female; Sprague-Dawley; remark: listed apart in the source
[27] = tested on: Rat; assay: concentration in adipose (perirenal) after dosing; conditions: 2400 h; dosed: 2,3,7,8-Tetrachlorodibenzo-p-dioxin; 0.0001 mg/kg; oral; Female; Sprague-Dawley; remark: listed apart in the source
[28] = tested on: Rat; assay: concentration in adipose (perirenal) after dosing; conditions: 480 h; dosed: 2,3,7,8-Tetrachlorodibenzo-p-dioxin; 0.0001 mg/kg; oral; Female; Sprague-Dawley; remark: listed apart in the source
[29] = tested on: Rat; assay: concentration in adipose after dosing; conditions: 480 h; dosed: 2,3,7,8-Tetrachlorodibenzo-p-dioxin; 0.0001 mg/kg; oral; Female; Sprague-Dawley; remark: listed apart in the source
[30] = tested on: Rat; assay: concentration in lung after dosing; conditions: dosed: 2,3,7,8-Tetrachlorodibenzo-p-dioxin, oral, Female, Sprague-Dawley
[31] = tested on: Rat; assay: concentration in adipose after dosing; conditions: dosed: 2,3,7,8-Tetrachlorodibenzo-p-dioxin, oral, Female, Sprague-Dawley
[32] = tested on: Rat; assay: concentration in liver after dosing; conditions: 24 h; dosed: 2,3,7,8-Tetrachlorodibenzo-p-dioxin; 0.00005 mg/kg; oral; Female; Sprague-Dawley
[33] = tested on: Rat; assay: concentration in adipose after dosing; conditions: 8 h; dosed: 2,3,7,8-Tetrachlorodibenzo-p-dioxin; 0.0001 mg/kg; oral; Female; Sprague-Dawley
[34] = tested on: Rat; assay: concentration in adipose after dosing; conditions: 48 h; dosed: 2,3,7,8-Tetrachlorodibenzo-p-dioxin; 0.0001 mg/kg; oral; Female; Sprague-Dawley; remark: listed apart in the source
[35] = tested on: Rat; assay: concentration in adipose after dosing; conditions: 48 h; dosed: 2,3,7,8-Tetrachlorodibenzo-p-dioxin; 0.0001 mg/kg; oral; Female; Sprague-Dawley; remark: listed apart in the source
[36] = tested on: Rat; assay: concentration in adipose (perirenal) after dosing; conditions: 48 h; dosed: 2,3,7,8-Tetrachlorodibenzo-p-dioxin; 0.00005 mg/kg; oral; Female; Sprague-Dawley; remark: listed apart in the source
[37] = tested on: Rat; assay: concentration in adipose after dosing; conditions: 960 h; dosed: 2,3,7,8-Tetrachlorodibenzo-p-dioxin; 0.0001 mg/kg; oral; Female; Sprague-Dawley
[38] = tested on: Rat; assay: concentration in adipose (perirenal) after dosing; conditions: 48 h; dosed: 2,3,7,8-Tetrachlorodibenzo-p-dioxin; 0.0001 mg/kg; oral; Female; Sprague-Dawley; remark: listed apart in the source
[39] = tested on: Rat; assay: concentration in adipose (perirenal) after dosing; conditions: 2400 h; dosed: 2,3,7,8-Tetrachlorodibenzo-p-dioxin; 0.0001 mg/kg; oral; Female; Sprague-Dawley; remark: listed apart in the source
[40] = tested on: Rat; assay: concentration in adipose after dosing; conditions: 960 h; dosed: 2,3,7,8-Tetrachlorodibenzo-p-dioxin; 0.0001 mg/kg; oral; Female; Sprague-Dawley; remark: listed apart in the source
[41] = tested on: Rat; assay: concentration in adipose after dosing; conditions: 480 h; dosed: 2,3,7,8-Tetrachlorodibenzo-p-dioxin; 0.0001 mg/kg; oral; Female; Sprague-Dawley; remark: listed apart in the source
[42] = tested on: Rat; assay: concentration in adipose after dosing; conditions: 480 h; dosed: 2,3,7,8-Tetrachlorodibenzo-p-dioxin; 0.00005 mg/kg; oral; Female; Sprague-Dawley
[43] = tested on: Rat; assay: concentration in liver after dosing; conditions: 24 h; dosed: 2,3,7,8-Tetrachlorodibenzo-p-dioxin; 0.0001 mg/kg; oral; Female; Sprague-Dawley; remark: listed apart in the source
[44] = tested on: Rat; assay: concentration in adipose after dosing; conditions: 960 h; dosed: 2,3,7,8-Tetrachlorodibenzo-p-dioxin; 0.0001 mg/kg; oral; Female; Sprague-Dawley; remark: listed apart in the source
[45] = tested on: Rat; assay: concentration in adipose (perirenal) after dosing; conditions: dosed: 2,3,7,8-Tetrachlorodibenzo-p-dioxin, oral, Female, Sprague-Dawley
[46] = tested on: Rat; assay: concentration in adipose after dosing; conditions: 960 h; dosed: 2,3,7,8-Tetrachlorodibenzo-p-dioxin; 0.00005 mg/kg; oral; Female; Sprague-Dawley

Clc1cc2c(cc1Cl)Oc1cc(Cl)c(Cl)cc1O2 [2,3,7,8-Tetrachlorodibenzo-p-dioxin]
Conditions | concentration in adipose [pg/g] | concentration in liver [pg/g]
[1] | 497 | –
[2] | 271 | –
[4] | – | 1310
[5] | 384 | –
[6] | 305 | –
[7] | 402 | –
[8] | 213 | –
[9] | 186 | –
[10] | 483 | –
[11] | 260 | –
[12] | – | 1450
[13] | 374 | –
[14] | 212 | –
[15] | 379 | –
[16] | – | 1200
[17] | 264 | –
[18] | 143 | –
[19] | 220 | –
[21] | 469 | –
[22] | 279 | –
[23] | 152 | –
[24] | 148 | –
[25] | 537 | –
[26] | 298 | –
[27] | 106 | –
[28] | 490 | –
[29] | 422 | –
[32] | – | 515
[33] | 260 | –
[34] | 397 | –
[35] | 292 | –
[36] | 236 | –
[37] | 294 | –
[38] | 407 | –
[39] | 218 | –
[40] | 294 | –
[41] | 372 | –
[42] | 95 | –
[43] | – | 1300
[44] | 159 | –
[46] | 116 | –

Conditions | concentration in adipose, [31] [pg/g] | concentration in adipose, [45] [pg/g] | concentration in liver, [3] [pg/g] | concentration in lung, [30] [pg/g]
8 h, 0.00005 mg/kg | 120 | – | – | –
8 h, 0.0001 mg/kg | 218 | 135 | – | –
24 h, 0.00005 mg/kg | – | – | 472 | –
24 h, 0.0001 mg/kg | – | – | 1630 | –
48 h, 0.00005 mg/kg | – | 416 | – | –
48 h, 0.0001 mg/kg | 303 | 371 | – | –
480 h, 0.00005 mg/kg | 110 | 260 | 271 | –
480 h, 0.0001 mg/kg | 428 | 190 | 307 | –
960 h, 0.00005 mg/kg | 93 | 146 | 205 | 465
960 h, 0.0001 mg/kg | 171 | 172 | – | –
1680 h, 0.0001 mg/kg | 134 | 103 | 288 | 201
2400 h, 0.00005 mg/kg | 93 | – | – | –
2400 h, 0.0001 mg/kg | 156 | 112 | – | –

[20]
Conditions | concentration in plasma [ng/mL]
1.5 h | 0.104
48 h | 0.631
144 h | 0.106
240 h | 0.161
360 h | 0.184
